Here are results for nine compounds from patent US10154813B1, “Method and apparatus for patient skin color monitoring and drug efficacy measurement” (priority 2017, dated 2018).

The conditions of data set [1]: patients, by body surface area; cited from earlier work.
The subject of data set [2] is microvascular endothelium (skin, right anterior thigh) of a peripheral artery disease patient. The data set is described as follows: Skin colorimetry (a, b, L) before and after application of “μ” in a peripheral artery disease patient on cilostazol. In kind it is in vivo, human. As to conditions: 50 mg twice a day; for a dry: baseline (dry). From the text: As stated above, one available quantitative color system is the L*a*b* color space or Hunter L/a/b color space, which can be visualized as a rectangular 3D coordinate system. L indicates lightness, a is the red/green coordinate, and b is the yellow/blue coordinate. L can have a value from 0 (black) to 100 (perfect reflection). The a and b axes have no numerical limits. Coordinate a is positive when red, and negative when green. Positive b is yellow, and negative b is blue. Colors can be described numerically using numerical values for L, a, and b. Differences between two colors can be quantified for each of the individual L/a/b values (ΔL, Δa, Δb). Overall differences between two colors can be derived numerically based on the three Δ values.
μ=drug applied before colorimeter and/or spectrophotometer measurements.
L1, a1, b1=Initial measurement.
L2, a2, b2=Measurement with μ applied. L2−L1=ΔLμ(L2 minus L1)=change in lightness and darkness(+=lighter,−=darker) a2−a1=Δaμ(a2 minus a1)=change in red and green(+=redder,−=greener) b2−b1=Δbμ(b2 minus b1)=change in yellow and blue(+=yellower,−=bluer)
When the arteries in the lower extremities become blocked and stenosed with various disease manifestations such as diabetes, hypercholesterolemia there is an increased amount of claudication that occurs with the lower extremities with minimal exertion. Using the current methodology described herein the patient can ascertain if the effects of the various antiplatelet and statin medication's i.e. Lipitor, Crestor are affective in improving the blood flow to the lower extremities. By taking baseline measurements in the lower extremities in particular locations in the legs such as the anterior tibial surface of a right or left leg, medication can be then administered to the patient. After the corresponding 5 half-lives or more have past of drug “δ” the procedure above can be implemented and test run to determine the a, b, L after drug “μ” has been applied. This information can then be used by calculating the measurements with the equation as described above the change in the colorimetric and spectrophotometric variables that can be derived. This will then allow for the ability of the patient in the healthcare provider to know which drug provides the maximum increase in cardio vascular flow to the area based on the information of the homeostasis of the microvascular endothelial system. The more a percentage change of equal to or greater than 10%, the better the flow that would be understood to be an improvement of the peripheral circulation of that area. It will also allow for the proper titration of medication of that particular area. If it seems to improve the flow then, the patient and the healthcare provider may decide to increase the dosage of the medication to have a better benefit. This will allow for an objective determination of how well the patient is responding to the medication while minimizing the side effects of the drugs.
With reference to the table below and to FIG. 19, the table and the graph show a patient with known peripheral artery disease diagnosed by angiogram in the right distal common femoral artery who is having their right anterior thigh continuously evaluated at the same location for the a, b, L calculations after they were initially started on 50 mg of cilostazol twice a day from December 2016 until August 2017. The values of the of a, b, L, are calculated after “μ” was applied which is shown in color red.

A further data set relates to coronary arteries. The note with it: cited from earlier work.
The next data set relates to skin capillaries. Put plainly: Topical wet run solution on skin: capillary dilation / red shift. The class given is in vivo, human. As to conditions: applied to skin surface. From the text:
The inventor's work has identified previously unknown differences in the reactions of healthy and unhealthy individuals to acetylcholine and other vasodilative substances when applied to the skin. […] Additional efficacious wet run solutions include bradykinin, adenosine, vasopressin, nitroglycerin, sildenafil, serotonin, and thrombin.
“Wet runs” can be performed according to the same general protocol described above for dry runs, which are incorporated herein but will not be fully repeated for brevity. The difference is that for wet runs the skin area being measured with the color detector is wetted with a chemical solution (a.k.a. “Wet run solution”). For example, a solution of one or more chemicals (e.g. acetylcholine and/or thrombin) in water, alcohol, petroleum jelly, or saline. The solution can be applied by wiping or covering the area with a wet gauze pad. The solution may be applied once at the beginning of the procedure before the color detector is positioned on the skin, or applied more than once throughout the procedure. Suspensions of effective chemicals (as opposed to solutions), viscous spreadable chemical applications, lipid-carrier compounds, and potentially non-wet applications of effective chemicals are also contemplated.
Wet runs can also be used as a partial substitute for exercise in a clinical setting, such as for patients who are not physically able to perform stress test exercises. The chemical alone provokes the same general types of differential responses as stress test exercise. For example, in a healthy at-rest individual, acetylcholine alone causes skin capillary dilation, which increases blood perfusion and (because blood is red) causes the skin to become more red. In an unhealthy individual, the acetylcholine alone will cause only low, negligible, or even negative red shift. Thus, the differential reactions to application of acetylcholine (for example) can be used to assess vascular health or the effectiveness of medication even without a stress test.

Consider `COc1cccc2c1C(=O)c1c(O)c3c(c(O)c1C2=O)C[C@@](O)(C(=O)CO)C[C@@H]3O[C@H]1C[C@H](N)[C@H](O)[C@H](C)O1` [Adriamycin], for which the “cumulative dose associated with an increased risk of cardiomyopathy” value in data set [1] was “above 550 mg/m2”.
Turning to `O=C1CCc2cc(OCCCCc3nnnn3C3CCCCC3)ccc2N1` [Cilostazol, cilostazol], in data set [2] (9 months monitoring), the “effect on blood flow to the microvascular endothelium (a shift after μ)” value is “improved blood flow”. Moreover, the L is reported as 70.42 in data set [2] (April 2017); 65.59 in data set [2] (August 2017); 65.09 in data set [2] (December 2016); 71.68 in data set [2] (February 2017); 58.14 in data set [2] (January 2017); 71.63 in data set [2] (July 2017). Moreover, the L is 66.06 in data set [2] (June 2017), 70.24 in data set [2] (March 2017) and 69.91 in data set [2] (May 2017). The b in data set [2] (April 2017) came to 16.14; in data set [2] (August 2017) it was 16.8; in data set [2] (December 2016), 15.65; in data set [2] (February 2017), 14.67; in data set [2] (January 2017), 10.51; in data set [2] (July 2017), 14.62. Besides, the values for the b in data set [2] (June 2017), in data set [2] (March 2017) and in data set [2] (May 2017) were 17.75, 15.42 and 15.64, respectively. The a dry in data set [2] (April 2017) was found to be 5.14; in data set [2] (August 2017), 5.31; in data set [2] (December 2016) it was 4.58; in data set [2] (February 2017) it was 4.70; in data set [2] (January 2017), 4.62; in data set [2] (July 2017), 5.15. Further, the a dry in data set [2] (June 2017) was 5.35; in data set [2] (March 2017), 5.12; in data set [2] (May 2017), 5.02. Moreover, the “a wet after “μ”” value came to 7.33 in data set [2] (April 2017); 10.32 in data set [2] (August 2017); 5.35 in data set [2] (December 2016); 7.33 in data set [2] (February 2017); 6.33 in data set [2] (January 2017); 8.95 in data set [2] (July 2017). For the same compound, the results for the “a wet after “μ”” value in data set [2] (June 2017), in data set [2] (March 2017) and in data set [2] (May 2017) were 9.40, 7.62 and 8.06, respectively.
For `CC(=O)OCC[N+](C)(C)C` [acetylcholine], the temporary occlusion result in the data set with coronary arteries (eight arteries with advanced stenosis) is given as “temporary occlusion in five”.
With `Nc1ncnc2c1ncn2[C@@H]1O[C@H](CO)[C@@H](O)[C@H]1O` [adenosine], the “efficacy as wet run solution” value in the data set on skin capillaries is “efficacious”.
As to `O=[N+]([O-])OCC(CO[N+](=O)[O-])O[N+](=O)[O-]` [nitroglycerin], in the data set with coronary arteries (all vessels (normal and diseased)), the vessel response entry was “All vessels dilated”. The “efficacy as wet run solution” value with skin capillaries is recorded as “efficacious”.
For `NCCc1c[nH]c2ccc(O)cc12` [serotonin], in the data set on skin capillaries, the “efficacy as wet run solution” value was “efficacious”.
On the same count and under the same terms, in the case of `CCCc1nn(C)c2c(=O)[nH]c(-c3cc(S(=O)(=O)N4CCN(C)CC4)ccc3OCC)nc12` [sildenafil] it was “efficacious”.
The same measure, in the same setting: for `NC(=O)CC[C@@H]1NC(=O)[C@H](Cc2ccccc2)NC(=O)[C@H](Cc2ccc(O)cc2)NC(=O)[C@@H](N)CSSC[C@@H](C(=O)N2CCC[C@H]2C(=O)N[C@@H](CCCN=C(N)N)C(=O)NCC(N)=O)NC(=O)[C@H](CC(N)=O)NC1=O` [vasopressin] the value was “efficacious”; for thrombin, “efficacious”.
